From patent US11261174B2, “Pyrazole O-linked carbamoyl cyclohexyl acids as LPA antagonists” (BRISTOL-MYERS SQUIBB COMPANY, priority 2017, dated 2022) come the findings set out here.

pIC50: −log10 of the molar value.

Sequence of LPA1 (Q92633 whole entry): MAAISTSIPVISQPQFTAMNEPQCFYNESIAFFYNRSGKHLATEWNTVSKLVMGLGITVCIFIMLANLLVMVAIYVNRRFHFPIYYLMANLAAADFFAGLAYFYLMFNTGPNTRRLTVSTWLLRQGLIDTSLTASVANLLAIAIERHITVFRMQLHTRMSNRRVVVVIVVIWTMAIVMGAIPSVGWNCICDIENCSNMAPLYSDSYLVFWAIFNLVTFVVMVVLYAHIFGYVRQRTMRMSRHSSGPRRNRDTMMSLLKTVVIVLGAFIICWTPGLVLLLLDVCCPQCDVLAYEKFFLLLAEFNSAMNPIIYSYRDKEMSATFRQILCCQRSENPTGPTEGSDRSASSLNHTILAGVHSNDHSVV

In the assay the target is LPA1 (Homo sapiens, UniProt Q92633). Kind of assay: LPA1 functional antagonist assay (LPA-induced calcium flux). The note with it: CHO cells overexpressing human LPA1; calcium flux induced by 10 nM LPA; read-out: hLPA1 IC50. Also on record: expressed in transfected cells; host or cells: Chinese hamster ovary (CHO) cells. It is filed as cell-based. On the procedure: The effectiveness of compounds of the present invention as LPA1 inhibitors can be determined in an LPA1 functional antagonist assay as follows:
Chinese hamster ovary cells overexpressing human LPA1 were plated overnight (15,000 cells/well) in poly-D-lysine coated 384-well microplates (Greiner bio-one, Cat #781946) in DMEM/F12 medium (Gibco, Cat #11039). Following overnight culture, cells were loaded with calcium indicator dye (AAT Bioquest Inc, Cat #34601) for 30 minutes at 37° C. The cells were then equilibrated to room temperature for 30 minutes before the assay. Test compounds solubilized in DMSO were transferred to 384 well non-binding surface plates (Corning, Cat #3575) using the Labcyte Echo acoustic dispense and diluted with assay buffer [1×HBSS with calcium/magnesium (Gibco Cat #14025-092), 20 mM HEPES (Gibco Cat #15630-080) and 0.1% fatty acid free BSA (Sigma Cat # A9205)] to a final concentration of 0.5% DMSO. Diluted compounds were added to the cells by FDSS6000 (Hamamatsu) at final concentrations ranging from 0.08 nM to 5 μM. and were then incubated for 20 min at room temperature at which time LPA (Avanti Polar Lipids Cat #857130C) was added at final concentrations of 10 nM to stimulate the cells. […] IC50 values were determined by fitting data to a 4-parameter logistic equation (GraphPad Prism, San Diego Calif.).
(Calcium assays in cells follow changes in intracellular calcium, usually with a dye or a luminescent sensor.)
Usually pIC50 stands for the IC50 on a negative log10 scale, so that one unit is a factor of ten. As for `CN(C(=O)OCc1c(-c2cnc(O[C@H]3CCC[C@H](C(=O)O)C3)cn2)cnn1C)C1CCCC1` [Example 56], the negative-log IC50 (pIC50) was 7.74.

Take `CCCN(C)C(=O)OCc1c(-c2ncc(O[C@H]3CCC[C@H](C(=O)O)C3)c(CC)n2)cnn1C` [Example 88]: the pIC50 was 5.90.

Consider `CC(C)CCN(C)C(=O)OCc1c(-c2ccc(O[C@@H]3CCC[C@@H](C(=O)O)C3)cc2)cnn1C` [Example 37], for which the negative logarithm of the IC50 (pIC50) is 5.69.

For the compound `Cc1nc(-c2cnn(C)c2COC(=O)N(C)Cc2ccccc2)ccc1O[C@H]1CCC[C@H](C(=O)O)C1` [Example 15], the pIC50 is 8.00. The result for `CN(C(=O)OCc1c(-c2ccc(O[C@@H]3CCC[C@@H](C(=O)O)C3)cc2)cnn1C)C1CCC1` [Example 42] reads 6.38.

As for `Cc1nc(-c2cnn(C)c2COC(=O)N(C)C2CCCCC2)ncc1O[C@H]1CCC[C@H](C(=O)O)C1` [Example 79], the negative-log IC50 (pIC50) was 7.03. The result for `CCc1nc(-c2cnn(C)c2COC(=O)N(C)CC2CC2)ncc1O[C@H]1CCC[C@H](C(=O)O)C1` [Example 85] reads 6.79. With `CN(CCC1CC1)C(=O)OCc1c(-c2ccc(O[C@@H]3CCC[C@@H](C(=O)O)C3)cn2)cnn1C` (racemic) [Example 32] the figure was 7.27; with `CCCCN(C)C(=O)OCc1c(-c2ncc(O[C@H]3CCC[C@H](C(=O)O)C3)c(CC)n2)cnn1C` [Example 87], 7.48; with `CN(CCC1CC1)C(=O)OCc1c(-c2ccc(O[C@H]3CCC[C@H](C(=O)O)C3)cc2)cnn1C` [Example 63], 7.34. The result for `Cc1nc(-c2cnn(C)c2COC(=O)NC2CCCCC2)ncc1O[C@H]1CCC[C@H](C(=O)O)C1` [Example 81] reads 6.07; that for `Cc1nc(-c2cnn(C)c2COC(=O)N(C)CC2CCCC2)ccc1O[C@H]1CCC[C@H](C(=O)O)C1` [Example 13], 6.61; that for `Cc1nc(-c2cnn(C)c2COC(=O)N2CC(C)(C)C2)ccc1O[C@H]1CCC[C@H](C(=O)O)C1` [Example 90], 6.51. For `Cc1nc(-c2cnn(C)c2COC(=O)N(C)CC(C)C)ncc1O[C@H]1CCC[C@H](C(=O)O)C1` [Example 68], the negative-log IC50 (pIC50) is 6.67. With `Cc1nc(-c2cnn(C)c2COC(=O)N(C)CCC(C)C)ccc1O[C@H]1CCC[C@H](C(=O)O)C1` [Example 24] the figure was 8.30; with `CCCCN(C)C(=O)OCc1c(-c2ccc(O[C@H]3CCC[C@H](C(=O)O)C3)cc2)cnn1C` [Example 64], 7.64. `CCc1nc(-c2cnn(C)c2COC(=O)N(C)CC2CCC2)ncc1O[C@H]1CCC[C@H](C(=O)O)C1` [Example 84]: the pIC50 is 7.89. Regarding `Cc1cc(-c2cnn(C)c2COC(=O)N(C)C(C)C2CC2)ccc1O[C@H]1CCC[C@H](C(=O)O)C1` (stereo partly shown) [Example 47], the pIC50 was 7.57. `Cc1nc(-c2cnn(C)c2COC(=O)N(C)C(C2CC2)C2CC2)ccc1O[C@H]1CCC[C@H](C(=O)O)C1` [Example 23]: the negative logarithm of the IC50 (pIC50) was 7.55. With `Cc1nc(-c2cnn(C)c2COC(=O)N(C)Cc2cccc(Cl)c2)ccc1O[C@H]1CCC[C@H](C(=O)O)C1` [Example 14] the figure was 5.95; with `CCCC(C)(C)N(C)C(=O)OCc1c(-c2ccc(O[C@@H]3CCC[C@@H](C(=O)O)C3)cn2)cnn1C` (racemic) [Example 31], 7.29. With `Cc1nc(-c2cnn(C)c2COC(=O)N(C)CC23CC(C2)C3)ncc1O[C@H]1CCC[C@H](C(=O)O)C1` [Example 77] the figure was 6.90; with `Cc1nc(-c2cnn(C)c2COC(=O)N(C)CCCCCF)ncc1O[C@H]1CCC[C@H](C(=O)O)C1` [Example 73], 6.85; with `C[C@@H](C1CC1)N(C)C(=O)OCc1c(-c2ccc(O[C@H]3CCC[C@H](C(=O)O)C3)cc2)cnn1C` [Example 57], 6.72. The result for `CCCCN(C)C(=O)OCc1c(-c2ccc(O[C@H]3CCC[C@H](C(=O)O)C3)cn2)cnn1C` [Example 35] reads 8.05.

Turning to `CCCCN(C)C(=O)OCc1c(-c2ccc(O[C@H]3CCC[C@H](C(=O)O)C3)c(C)c2)cnn1C` [Example 30], the pIC50 was 8.30. With `CCCC1(N(C)C(=O)OCc2c(-c3ccc(O[C@H]4CCC[C@H](C(=O)O)C4)c(C)n3)cnn2C)CC1` [Example 18] the figure was 7.26; with `Cc1nc(-c2cnn(C)c2COC(=O)N(C)C2CCC2)ncc1O[C@H]1CCC[C@H](C(=O)O)C1` [Example 70], 6.92; with `CCC(C)N(C)C(=O)OCc1c(-c2ccc(O[C@H]3CCC[C@H](C(=O)O)C3)cn2)cnn1C` (stereo partly shown) [Example 59], 6.40. As to `Cc1cc(-c2cnn(C)c2COC(=O)N(C)C2CCCC2)ccc1O[C@H]1CCC[C@H](C(=O)O)C1` [Example 48], the negative-log IC50 (pIC50) was 8.10.

For `Cc1nc(-c2cnn(C)c2COC(=O)N(C)C2CCCC2)ncc1O[C@H]1CCC[C@H](C(=O)O)C1` [Example 71], the pIC50 was 6.94.

`CN(CC1CCC1)C(=O)OCc1c(-c2ccc(O[C@H]3CCC[C@H](C(=O)O)C3)cc2)cnn1C` [Example 52]: the negative logarithm of the IC50 (pIC50) is 7.28. The result for `CCCC(C)(C)N(C)C(=O)OCc1c(-c2ccc(O[C@@H]3CCC[C@@H](C(=O)O)C3)c(C)n2)cnn1C` (racemic) [Example 28] reads 6.85; that for `Cc1nc(-c2cnn(C)c2COC(=O)N(C)Cc2ccccc2)ncc1O[C@H]1CCC[C@H](C(=O)O)C1` [Example 72], 7.22; that for `Cc1nc(-c2cnn(C)c2COC(=O)N(C)CCC2CC2)ccc1O[C@H]1CCC[C@H](C(=O)O)C1` [Example 19], 8.05. The result for `CC(C1CC1)N(C)C(=O)OCc1c(-c2ccc(O[C@H]3CCC[C@H](C(=O)O)C3)cc2)cnn1C` (stereo partly shown) [Example 89] reads 7.64; that for `CCc1nc(-c2cnn(C)c2COC(=O)N(C)C2CCC2)ncc1O[C@H]1CCC[C@H](C(=O)O)C1` [Example 86], 6.66.

In the case of `C[C@H](C1CC1)N(C)C(=O)OCc1c(-c2ccc(O[C@H]3CCC[C@H](C(=O)O)C3)cn2)cnn1C` [Example 1, (1S,3S)-3-((6-(5-(((((R)-1-cyclopropylethyl)(methyl)carbamoyl)oxy)methyl)-1-methyl-1H-pyrazol-4-yl)pyridin-3-yl)oxy)cyclohexane-1-carboxylic Acid], the pIC50 is 7.17. With `Cc1cc(-c2cnn(C)c2COC(=O)N(C)C(C)C2CCC2)ccc1O[C@H]1CCC[C@H](C(=O)O)C1` (stereo partly shown) [Example 46] the figure was 7.57.

For `Cc1nc(-c2cnn(C)c2COC(=O)N(C)C2CCCC2)cnc1O[C@H]1CCC[C@H](C(=O)O)C1` [Example 9], the negative-log IC50 (pIC50) was 7.47. The result for `CC(C)CN(C)C(=O)OCc1c(-c2ccc(O[C@H]3CCC[C@H](C(=O)O)C3)cc2)cnn1C` [Example 49] reads 6.54; that for `Cc1cc(-c2cnn(C)c2COC(=O)N(C)C2CCC2)ccc1O[C@H]1CCC[C@H](C(=O)O)C1` [Example 45], 7.72. The result for `Cc1nc(-c2cnn(C)c2COC(=O)N(C)Cc2ccccc2)cnc1O[C@H]1CCC[C@H](C(=O)O)C1` [Example 8] reads 7.47.

In the case of `Cc1nc(-c2cnn(C)c2COC(=O)N(C)CC2CCC2)ccc1O[C@H]1CCC[C@H](C(=O)O)C1` [Example 21], the pIC50 is 8.00. With `CC(C1CCC1)N(C)C(=O)OCc1c(-c2ccc(O[C@H]3CCCC(C(=O)O)C3)cn2)cnn1C` (stereo partly shown) [Example 2] the figure was 6.87. With `Cc1nc(-c2cnn(C)c2COC(=O)N(C)C[C@H]2C[C@@H]2C)ncc1O[C@H]1CCC[C@H](C(=O)O)C1` [Example 92] the figure was 7.35; with `CCC(CC)N(C)C(=O)OCc1c(-c2ccc(O[C@H]3CCC[C@H](C(=O)O)C3)cn2)cnn1C` [Example 26], 7.52. The result for `CC(C1CC1)N(C)C(=O)OCc1c(-c2ccc(O[C@H]3CCC[C@H](C(=O)O)C3)cn2)cnn1C` (stereo partly shown) [Example 61] reads 6.87; that for `CC(C)CCN(C)C(=O)OCc1c(-c2ccc(O[C@H]3CCC[C@H](C(=O)O)C3)cc2)cnn1C` [Example 38], 8.22; that for `Cc1nc(-c2cnn(C)c2COC(=O)N(C)CCC2CC2(F)F)ncc1O[C@H]1CCC[C@H](C(=O)O)C1` (stereo partly shown) [Example 78], 6.50. Regarding `CN(C(=O)OCc1c(-c2ccc(O[C@H]3CCC[C@H](C(=O)O)C3)cn2)cnn1C)C1CCCC1` [Example 62], the pIC50 is 7.51. With `CCCN(C)C(=O)OCc1c(-c2ncc(O[C@H]3CCC[C@H](C(=O)O)C3)c(C)n2)cnn1C` [Example 66, (1S,3S)-3-((4-Methyl-2-(1-methyl-5-(((methyl(propyl)carbamoyl)oxy)methyl)-1H-pyrazol-4-yl)pyrimidin-5-yl)oxy)cyclohexane-1-carboxylic Acid] the figure was 6.67; with `CN(CC1CC1)C(=O)OCc1c(-c2ccc(O[C@@H]3CCC[C@@H](C(=O)O)C3)cc2)cnn1C` (racemic) [Example 41], 5.75. With `CCCCCN(C)C(=O)OCc1c(-c2ncc(O[C@H]3CCC[C@H](C(=O)O)C3)c(C)n2)cnn1C` [Example 75] the figure was 7.09; with `CCCCN(C)C(=O)OCc1c(-c2ncc(O[C@H]3CCC[C@H](C(=O)O)C3)c(C)n2)cnn1C` [Example 67], 7.23.
